Values of other authors in US20240293300A1, “SKIN PENETRATION COSMETIC MATERIAL, AND SKIN PENETRATION COSMETIC MATERIAL PRODUCTION METHOD” (SHISEIDO COMPANY, LTD., priority 2021, published 2024).
Where a SMILES comes first, the peptide text is derived from it.

Settings: 1-octanol/water partition coefficient

| Compound | Log P |
| --- | --- |
| Cc1cc(C)nc(-n2nc(C)cc2C)n1.Cl [compound a, 2-(3,5-dimethylpyrazol-1-yl)-4,6-dimethyl pyrimidine hydrochloride] | 1.36 |
| N[C@@H](CCC(=O)O)C(=O)O [glutamic acid] | −3.7 |
| NCC(=O)NCC(=O)O [glycylglycine] (H-Gly-Gly-OH) | −2.3 |
| piperidine propionic acid | −2.06 |
